Data from the NIST ThermoML archive (doi:10.1016/j.fluid.2014.01.038).
± gives the expanded uncertainty stated by the source.

Experiments:
[1] = cn = amount concentration of the nth substance listed, in mol/dm3; conditions: 101 kPa, Liquid, Alternating current cell with electrodes
[2] = mn = molality of the nth substance listed, in mol/kg; conditions: 288.15 K, 101 kPa, Liquid, Pycnometric method

For CCCCCCCCCCCCn1cc[n+](C)c1.[Br-] [1-dodecyl-3-methylimidazolium bromide] + O, the electrical conductivity ([1]; 283.15 K, c1 = 0.0006629) was 0.00432 ± 0.0026 S/m, the electrical conductivity ([1]; 283.15 K, c1 = 0.001064) was 0.00695 ± 0.0026 S/m and the electrical conductivity ([1]; 283.15 K, c1 = 0.001497) was 0.0098 ± 0.0026 S/m. It also gave an electrical conductivity ([1]; 283.15 K, c1 = 0.00184) of 0.012 ± 0.0025 S/m, an electrical conductivity ([1]; 283.15 K, c1 = 0.002146) of 0.014 ± 0.002 S/m and an electrical conductivity ([1]; 283.15 K, c1 = 0.00249) of 0.0158 ± 0.0018 S/m. The electrical conductivity ([1]; 283.15 K, c1 = 0.002909) was 0.0168 ± 0.00079 S/m, the electrical conductivity ([1]; 283.15 K, c1 = 0.003361) was 0.0175 ± 0.00063 S/m and the electrical conductivity ([1]; 283.15 K, c1 = 0.003884) was 0.0183 ± 0.0006 S/m. The electrical conductivity ([1]; 283.15 K, c1 = 0.00448) was 0.0192 ± 0.00058 S/m, the electrical conductivity ([1]; 283.15 K, c1 = 0.004998) was 0.0199 ± 0.00049 S/m and the electrical conductivity ([1]; 283.15 K, c1 = 0.005625) was 0.0206 ± 0.00045 S/m. The electrical conductivity ([1]; 288.15 K, c1 = 0.0006629) was 0.00491 ± 0.003 S/m, the electrical conductivity ([1]; 288.15 K, c1 = 0.001064) was 0.00789 ± 0.003 S/m and the electrical conductivity ([1]; 288.15 K, c1 = 0.001497) was 0.0111 ± 0.0029 S/m. The electrical conductivity ([1]; 288.15 K, c1 = 0.00184) was 0.0136 ± 0.0028 S/m, the electrical conductivity ([1]; 288.15 K, c1 = 0.002146) was 0.0158 ± 0.0022 S/m and the electrical conductivity ([1]; 288.15 K, c1 = 0.00249) was 0.0178 ± 0.0021 S/m. The electrical conductivity ([1]; 288.15 K, c1 = 0.002909) was 0.019 ± 0.00091 S/m, the electrical conductivity ([1]; 288.15 K, c1 = 0.003361) was 0.0198 ± 0.00059 S/m and the electrical conductivity ([1]; 288.15 K, c1 = 0.003884) was 0.0204 ± 0.0006 S/m. It also gave an electrical conductivity ([1]; 288.15 K, c1 = 0.00448) of 0.0215 ± 0.00074 S/m, an electrical conductivity ([1]; 288.15 K, c1 = 0.004998) of 0.0224 ± 0.0007 S/m and an electrical conductivity ([1]; 288.15 K, c1 = 0.005625) of 0.0236 ± 0.0008 S/m. For the same molecule, the electrical conductivity ([1]; 293.15 K, c1 = 0.0006629) was 0.0055 ± 0.0034 S/m, the electrical conductivity ([1]; 293.15 K, c1 = 0.001064) was 0.00894 ± 0.0033 S/m and the electrical conductivity ([1]; 293.15 K, c1 = 0.001497) was 0.0125 ± 0.0033 S/m. For the same molecule, the electrical conductivity ([1]; 293.15 K, c1 = 0.00184) was 0.0153 ± 0.0031 S/m, the electrical conductivity ([1]; 293.15 K, c1 = 0.002146) was 0.0178 ± 0.0024 S/m and the electrical conductivity ([1]; 293.15 K, c1 = 0.00249) was 0.0201 ± 0.0023 S/m. For the same molecule, the electrical conductivity ([1]; 293.15 K, c1 = 0.002909) was 0.0212 ± 0.00097 S/m, the electrical conductivity ([1]; 293.15 K, c1 = 0.003361) was 0.0222 ± 0.00087 S/m and the electrical conductivity ([1]; 293.15 K, c1 = 0.003884) was 0.0233 ± 0.0008 S/m. For the same molecule, the electrical conductivity ([1]; 293.15 K, c1 = 0.00448) was 0.0244 ± 0.00081 S/m, the electrical conductivity ([1]; 293.15 K, c1 = 0.004998) was 0.0256 ± 0.00085 S/m and the electrical conductivity ([1]; 293.15 K, c1 = 0.005625) was 0.0269 ± 0.00091 S/m. It also gave an electrical conductivity ([1]; 298.15 K, c1 = 0.0006629) of 0.00613 ± 0.0038 S/m, an electrical conductivity ([1]; 298.15 K, c1 = 0.001064) of 0.00994 ± 0.0037 S/m and an electrical conductivity ([1]; 298.15 K, c1 = 0.001497) of 0.0139 ± 0.0036 S/m. It also gave an electrical conductivity ([1]; 298.15 K, c1 = 0.00184) of 0.017 ± 0.0035 S/m, an electrical conductivity ([1]; 298.15 K, c1 = 0.002146) of 0.0198 ± 0.0028 S/m and an electrical conductivity ([1]; 298.15 K, c1 = 0.00249) of 0.0222 ± 0.0027 S/m. It also gave an electrical conductivity ([1]; 298.15 K, c1 = 0.002909) of 0.0239 ± 0.0013 S/m, an electrical conductivity ([1]; 298.15 K, c1 = 0.003361) of 0.0251 ± 0.00099 S/m and an electrical conductivity ([1]; 298.15 K, c1 = 0.003884) of 0.0264 ± 0.00098 S/m. The electrical conductivity ([1]; 298.15 K, c1 = 0.00448) was 0.0279 ± 0.00099 S/m, the electrical conductivity ([1]; 298.15 K, c1 = 0.004998) was 0.0291 ± 0.00092 S/m and the electrical conductivity ([1]; 298.15 K, c1 = 0.005625) was 0.0305 ± 0.001 S/m. It also gave an electrical conductivity ([1]; 303.15 K, c1 = 0.0006629) of 0.00676 ± 0.0042 S/m, an electrical conductivity ([1]; 303.15 K, c1 = 0.001064) of 0.011 ± 0.0041 S/m and an electrical conductivity ([1]; 303.15 K, c1 = 0.001497) of 0.0154 ± 0.0039 S/m. The electrical conductivity ([1]; 303.15 K, c1 = 0.00184) was 0.0188 ± 0.0039 S/m, the electrical conductivity ([1]; 303.15 K, c1 = 0.002146) was 0.0216 ± 0.0033 S/m and the electrical conductivity ([1]; 303.15 K, c1 = 0.00249) was 0.0247 ± 0.0032 S/m. The electrical conductivity ([1]; 303.15 K, c1 = 0.002909) was 0.027 ± 0.0017 S/m, the electrical conductivity ([1]; 303.15 K, c1 = 0.003361) was 0.0284 ± 0.0012 S/m and the electrical conductivity ([1]; 303.15 K, c1 = 0.003884) was 0.0299 ± 0.0011 S/m. For the same molecule, the electrical conductivity ([1]; 303.15 K, c1 = 0.00448) was 0.0315 ± 0.0011 S/m, the electrical conductivity ([1]; 303.15 K, c1 = 0.004998) was 0.033 ± 0.0011 S/m and the electrical conductivity ([1]; 303.15 K, c1 = 0.005625) was 0.0347 ± 0.0012 S/m. The electrical conductivity ([1]; 308.15 K, c1 = 0.0006629) was 0.00742 ± 0.0046 S/m, the electrical conductivity ([1]; 308.15 K, c1 = 0.001064) was 0.0121 ± 0.0045 S/m and the electrical conductivity ([1]; 308.15 K, c1 = 0.001497) was 0.0169 ± 0.0043 S/m. It also gave an electrical conductivity ([1]; 308.15 K, c1 = 0.00184) of 0.0201 ± 0.0043 S/m, an electrical conductivity ([1]; 308.15 K, c1 = 0.002146) of 0.0237 ± 0.0038 S/m and an electrical conductivity ([1]; 308.15 K, c1 = 0.00249) of 0.0273 ± 0.0039 S/m. The electrical conductivity ([1]; 308.15 K, c1 = 0.002909) was 0.0304 ± 0.0022 S/m, the electrical conductivity ([1]; 308.15 K, c1 = 0.003361) was 0.0321 ± 0.0014 S/m and the electrical conductivity ([1]; 308.15 K, c1 = 0.003884) was 0.0338 ± 0.0013 S/m. The electrical conductivity ([1]; 308.15 K, c1 = 0.00448) was 0.0358 ± 0.0013 S/m, the electrical conductivity ([1]; 308.15 K, c1 = 0.004998) was 0.0374 ± 0.0013 S/m and the electrical conductivity ([1]; 308.15 K, c1 = 0.005625) was 0.0394 ± 0.0013 S/m.

CC(C)C[C@H](NC(=O)CN)C(=O)O [glycyl-L-leucine] + O gave a mass density ([2]; m1 = 0.03301) of 1000.8 ± 20 kg/m3, a mass density ([2]; m1 = 0.04936) of 1001.65 ± 20 kg/m3 and a mass density ([2]; m1 = 0.05894) of 1002.14 ± 20 kg/m3. For the same molecule, the mass density ([2]; m1 = 0.06889) was 1002.67 ± 20 kg/m3, the mass density ([2]; m1 = 0.07838) was 1003.17 ± 20 kg/m3 and the mass density ([2]; m1 = 0.08821) was 1003.69 ± 20 kg/m3. For the same molecule, the mass density ([2]; m1 = 0.09745) was 1004.12 ± 20 kg/m3.

CC(C)[C@H](NC(=O)CN)C(=O)O [glycyl-L-valine] + O gave a mass density ([2]; m1 = 0.04051) of 1001.29 ± 20 kg/m3, a mass density ([2]; m1 = 0.08097) of 1003.45 ± 20 kg/m3 and a mass density ([2]; m1 = 0.1203) of 1005.55 ± 20 kg/m3. The mass density ([2]; m1 = 0.1403) was 1006.63 ± 20 kg/m3, the mass density ([2]; m1 = 0.1594) was 1007.68 ± 20 kg/m3 and the mass density ([2]; m1 = 0.1799) was 1008.79 ± 20 kg/m3. It also gave a mass density ([2]; m1 = 0.1995) of 1009.84 ± 20 kg/m3.

Molecule NCC(=O)NCC(=O)O [glycylglycine] + O has a mass density ([2]; m1 = 0.06148) of 1002.65 ± 20 kg/m3, a mass density ([2]; m1 = 0.09135) of 1004.36 ± 20 kg/m3 and a mass density ([2]; m1 = 0.1538) of 1007.96 ± 20 kg/m3. For the same molecule, the mass density ([2]; m1 = 0.1823) was 1009.6 ± 20 kg/m3, the mass density ([2]; m1 = 0.2128) was 1011.36 ± 20 kg/m3 and the mass density ([2]; m1 = 0.2534) was 1013.73 ± 20 kg/m3. For the same molecule, the mass density ([2]; m1 = 0.3028) was 1016.61 ± 20 kg/m3.
